Data: patent US8497092B2, “Method of bioassaying yokukansan” (Tsumura & Co., priority 2008, dated 2013)

What was measured:
PC12 cells [1] = experiment: Induction of cell death by glutamate in PC12 cells (MTT assay); type: cell-based, rat; conditions: regardless of whether NGF stimulation is present
Procedure: By using PC12 cells obtained in Example 1, a culture condition to efficiently induce cell death by glutamate was studied as follows.
From the above studies, the best culture condition for inducing cell death by glutamate was determined as follows: the cells are seeded on a plate coated with collagen, and a medium supplemented with dialyzed serum and without phenol red is used as an induction medium. The induction medium contains an antibiotic-containing medium obtained by adding 5 mL of a penicillin-streptomycin solution to 500 mL of RPMI 1640 medium (GIBCO 11835-030), 5% dialyzed fetal bovine serum (GIBCO 26400-044), and 10% dialyzed horse serum (Biowest S090D). […]
After 24 hours from the above induction of cell death, 0.5% MTT solution (Dojindo 345-01821) was added in an amount of 20 μL per 100 μL of the medium in the above 96-well plate and cultured for 5 hours. […] The crystals of formazan were dissolved using a pipette, and after leaving the solution overnight, the absorbance at a wavelength of 570 nm was measured with a reference wavelength of 690 nm using a spectrometer (Multiskan MCC/340, manufactured by Titertek, Inc.). Thereafter, the cell viability was calculated from the following calculation formula on the basis of the obtained absorbance. […]

PC12 cells [2] = conditions: Non-Patent Documents 1 to 3; cited from earlier work

Compound | cell death caused by glutamate (PC12 cells [1]) | inhibition of cell death caused by glutamate (PC12 cells [2])
N[C@@H](CCC(=O)O)C(=O)O [glutamate] | concentration-dependent manner | 
(−)-epigallocatechin gallate |  | cell death is inhibited
